Source: ChEMBL document CHEMBL1201862, “PubChem BioAssay data set” (2004)
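Cells were grown in 96-well plates and exposed to each compound for 48 hours at five concentrations; endpoints were interpolated linearly between bracketing concentrations, or set to the highest concentration if not reached. Abbreviation: GI50, concentration required for 50% inhibition of growth.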 Calls of active or inactive are those of the source. Cut-off read from the data, not from the text of the source: active = GI50 up to about 1.1 µM and inactive = higher.

How the values were obtained:
Experiment in all cases: DTP human tumour cell line panel, 48 h
DLD-1 = tested on: DLD-1
DMS-114 = tested on: DMS-114
DMS-273 = tested on: DMS-273
HOP-18 = tested on: HOP-18
KM-20L2 = tested on: KM-20L2
LXFL 529 = tested on: LXFL 529
SNB-78 = tested on: SNB-78
XF498 = tested on: XF498
RXF 631 = tested on: RXF 631

Row | SMILES | GI50 (DLD-1) | GI50 (DMS-114) | GI50 (DMS-273) | GI50 (HOP-18) | GI50 (KM-20L2) | GI50 (LXFL 529) | GI50 (SNB-78) | GI50 (XF498) | GI50 (RXF 631)
1 | CC1=CC(=O)c2cccc(O)c2C1=O | 1.66 µM (inactive) | 2.74 µM (inactive) | 2.42 µM (inactive) | 1.7 µM (inactive) | 20.5 µM (inactive) | 1.67 µM (inactive) | > 32.1 µM (inactive) | 1.79 µM (inactive) | –
2 | CC1CCC2(C)C(CC=C(C=O)C2(O)C=O)C12CO2 (stereo not drawn) | – | 1.57 µM (inactive) | 1.79 µM (inactive) | – | 2.49 µM (inactive) | 1.54 µM (inactive) | 2.07 µM (inactive) | 2.17 µM (inactive) | 1.99 µM (inactive)
3 | COc1cc2cc3c4c(cc(OC)c(OC)c4c2cc1OC)CCN3C(=O)CCC(=O)NCCCN(C)C | 16.9 µM (inactive) | 27.8 µM (inactive) | 73.1 µM (inactive) | > 100 µM (inactive) | 24.4 µM (inactive) | 61 µM (inactive) | > 100 µM (inactive) | 24.9 µM (inactive) | –
4 | O=C1c2ccncc2C(=O)c2c(O)ccc(O)c21 | – | 3.01 µM (inactive) | – | 12.9 µM (inactive) | 2.88 µM (inactive) | 10.3 µM (inactive) | – | 4.16 µM (inactive) | –
5 | CC(=O)N1c2ccccc2C2=CC3C4C(=O)N(c5ccccc5)C(=O)C4C21C1C(=O)N(c2ccccc2)C(=O)C31 (stereo not drawn) | 23.4 µM (inactive) | 4.27 µM (inactive) | – | 34.4 µM (inactive) | 30.3 µM (inactive) | 81.3 µM (inactive) | 84.5 µM (inactive) | 10.9 µM (inactive) | –
6 | CNC(=O)N(CCCCC(NC(C)=O)C(=O)NCc1ccccc1)Cc1ccccc1 (stereo not drawn) | > 100 µM (inactive) | > 100 µM (inactive) | > 100 µM (inactive) | – | > 100 µM (inactive) | > 100 µM (inactive) | > 100 µM (inactive) | > 100 µM (inactive) | > 100 µM (inactive)
7 | COc1cc([C@@H]2c3cc4c(cc3[C@@H](OC3OC5CO[C@@H](c6cccs6)OC5C(O)C3O)[C@H]3COC(=O)[C@H]23)OCO4)cc(OC)c1O (stereo partly drawn) | 2.18 µM (inactive) | – | 0.084 µM (active) | 1.57 µM (inactive) | 2.12 µM (inactive) | – | 1.08 µM (active) | 0.31 µM (active) | –
8 | CC1CSC(=S)N1C(=O)N1C(=S)SCC1C (stereo not drawn) | 19.3 µM (inactive) | 38.3 µM (inactive) | 20.1 µM (inactive) | 53.6 µM (inactive) | 38.7 µM (inactive) | 33.4 µM (inactive) | 43.2 µM (inactive) | – | –
9 | COc1cc(CNc2nc3ccc(C(F)(F)F)cc3nc2-c2ccccc2)cc(OC)c1OC | 48.6 µM (inactive) | – | 39 µM (inactive) | – | > 100 µM (inactive) | 24.8 µM (inactive) | 14.5 µM (inactive) | 56.1 µM (inactive) | > 100 µM (inactive)
10 | CN(Cc1ccccc1)c1nc(=[N+](C)C)ss1 | > 100 µM (inactive) | 20.3 µM (inactive) | 60.7 µM (inactive) | > 100 µM (inactive) | > 100 µM (inactive) | 71.6 µM (inactive) | > 100 µM (inactive) | > 100 µM (inactive) | 67.5 µM (inactive)
11 | COc1cc(CNC2c3cc4c(cc3C(c3cc(OC)c(OC)c(OC)c3)[C@H]3C(=O)OCC23)OCO4)cc(OC)c1OC (stereo partly drawn) | 0.41 µM (active) | 0.197 µM (active) | 0.237 µM (active) | 55.5 µM (inactive) | 0.197 µM (active) | 0.356 µM (active) | – | 0.364 µM (active) | –
12 | Nc1c(-c2ccccc2-c2c(N)[n+]([O-])c3ccccc3[n+]2[O-])[n+]([O-])c2ccccc2[n+]1[O-] | 4.63 µM (inactive) | 3.36 µM (inactive) | 4.66 µM (inactive) | 7.71 µM (inactive) | 4.33 µM (inactive) | 6.19 µM (inactive) | 71.8 µM (inactive) | – | –
13 | C=C(c1ccccc1)[C@@]1(O)CC[C@@H]1N(CC#N)Cc1ccccc1 | 19.6 µM (inactive) | 17 µM (inactive) | 20.5 µM (inactive) | 14.6 µM (inactive) | 63.1 µM (inactive) | 15.9 µM (inactive) | 31.2 µM (inactive) | – | –
